The results in this text go back to article PMC8279416, “Structural Fine-Tuning of Desmuramylpeptide NOD2 Agonists Defines Their In Vivo Adjuvant Activity” (Journal of Medicinal Chemistry, 2021).

Data set [1] has as its system K562 chronic myelogenous leukemia cells. The experiment in a line: PBMC cytotoxicity assay against K562 cells (flow cytometry). The format is cell-based. As to the method:
(§1) In the present study, we examined these desmuramylpeptides in terms of potentiation of the cytotoxic activity of the PBMCs against cancer cells. To this end, we used a previously described flow-cytometry-based cytotoxicity assay where PBMCs are co-incubated with fluorescently labeled cancer cells.[89] As indicated above, the NOD2-mediated NK cell activity originates from both the direct effects of NOD2 agonists on NK cells and the indirect activation through cytokine release by other NOD2-responsive cells, including monocytes. Thus, we used the whole PBMC population as the effector cells, rather than isolated NK cells, to provide conditions that would be closer to the in vivo environment, wherein the immune responses can be reinforced by interactions between the distinct immune cell subpopulations. Two malignant cell lines were used as the target cells in a 40:1 effector to target cell ratio: MEC1 B-chronic lymphocytic leukemia cells, and K562 chronic myelogenous leukemia cells. The K562 cells are considered a “classic” NK cell target, as they lack the expression of major histocompatibility complex (MHC) class I that is required for NK cell inhibition.[90]
(§2) The PBMC cytotoxicity assays using K562 and MEC1 cells were performed as described previously, with some modifications.[89] PBMCs were seeded (4 × 10^5 cells/well) in 96-well plates and treated with compounds (0.1–10 μM) or vehicle (0.1% DMSO) for 18 h. The K562 or MEC1 cells were stained with CFSE (Invitrogen, Carlsbad, CA, U.S.A.), washed twice with complete medium, and added (1 × 10^4 cells/well) to pretreated PBMCs for a final effector cell to target tumor cell ratio of 40:1. After a 4 h co-incubation (37 °C, 5% CO2), cells were stained with Sytox blue dead cell stain (Invitrogen) and analyzed using an Attune NxT flow cytometer (Thermo Fisher Scientific, Waltham, MA, U.S.A.) and the FlowJo software (Tree Star, Inc., Ashland, OR, U.S.A.). Cells that were positive for both CFSE and Sytox blue were defined as dead K562 and MEC1 cells. PBMCs alone and the CFSE-labeled cancer cells alone were also treated with the compounds at the same concentrations and stained with Sytox blue to determine any direct cytotoxicity of the compounds toward the PBMCs and cancer cells. The experiments were run in duplicate and repeated as three independent biological replicates. Statistical significance was determined by one-way ANOVA followed with Dunnett’s multiple comparisons test.

Another data set concerns the target T1, NOD2 (Homo sapiens, UniProt Q9HC29).
T1 construct: host or cells: HEK-Blue NOD2 cells (HEK293-derived)
The experiment in a line: HEK-Blue NOD2 cell line reporter assay (NF-κB-inducible SEAP). Particulars: for EC50 / NOD2 activity at 2 μM (fold increase): HEK-Blue NOD2 cells; for NOD2 activity at 2 μM (fold increase): NF-κB transcriptional (SEAP) activity relative to 0.1% DMSO. The format is cell-based. (A reporter such as luciferase makes a cellular process visible.)

Data set [2] concerns CD4+ T cells (OT II) cocultured with BMDCs. The experiment in a line: BMDC antigen presentation assay with ovalbumin-specific CD4+ T cells. The format is cell-based, mouse. Particulars: ovalbumin 50 μg/mL, 72 h coculture. The procedure:
To evaluate the adjuvant potential of the two most-promising desmuramylpeptides, 68 and 75, in terms of their effects on DC-mediated activation of CD4^+ and CD8^+ T cells, we used an in vitro antigen-presentation assay with C57BL/6 mouse bone-marrow-derived DCs (BMDCs). Following stimulation with 68 and 75 (1 or 10 μM) in the presence of ovalbumin soluble protein (50 μg/mL), BMDCs were cocultured with carboxyfluorescein succinimidyl ester (CFSE)-labeled naive ovalbumin-specific CD4^+ or CD8^+ T cells, which were isolated from splenocytes of OT II and OT I transgenic mice, respectively. After 3 days of coculture, CD25 (α subunit of IL-2 receptor)[108] expression was determined, along with the CFSE dilution, as markers of T-cell activation and proliferation, respectively. Furthermore, we also examined how this desmuramylpeptide-induced priming of T cells affected the secreted cytokine profiles in BMDC/T-cell cocultures.
CD4^+ and CD8^+ T cells were purified from splenocytes of OT II and OT I transgenic mice using CD4^+ and CD8^+ T cell isolation kits (Miltenyi Biotec, Germany), according to manufacturer instructions. Purified T cells were stained with CFSE (Invitrogen, Carlsbad, CA, U.S.A.) and washed. Then, 5 × 10^4 T cells were mixed with 1 × 10^4 BMDCs per well (pretreated with desmuramylpeptides [1 or 10 μM] and 50 μg/mL ovalbumin [InvivoGen, San Diego, CA, U.S.A.] for 18 h, and then washed). […] The cells were stained with Fixable viability dye eFluor 780 (eBioscience, Thermo Fisher Scientific, MA, U.S.A.), anti-Thy1.2-PE-Cy7 antibodies (Biolegend, San Diego, CA, U.S.A.), anti-CD8-eFluor450 antibodies (eBioscience), anti-CD4-eFluor450 antibodies (eBioscience), and anti-CD25-APC antibodies (Biolegend) and analyzed using a Beckman Coulter Cytoflex S flow cytometer (CA, U.S.A.) and FlowJo software (Tree Star, Inc., Ashland, OR, U.S.A.). Live Thy1.2^+/CD4^+ and Thy1.2^+/CD8^+ were evaluated for CFSE dilution and CD25 expression. […] Statistical significance was determined by one-way ANOVA followed by Dunnett’s multiple comparisons test.

For data set [3], the system named is MEC1 B-chronic lymphocytic leukemia cells. The experiment in a line: PBMC cytotoxicity assay against MEC1 cells (flow cytometry). The format is cell-based. The procedure: as §1
as §2, with “Cells that were positive for both CFSE and Sytox blue were defined as dead K562 and MEC1 cells. PBMCs alone and the CFSE-labeled cancer cells alone were also treated with the compounds at the same concentrations and stained with Sytox blue to determine any direct cytotoxicity of the compounds toward the PBMCs and cancer cells. The experiments were run in duplicate and repeated as three independent biological replicates.” left out
For orientation: A flow cytometer gives signals particle by particle.

Where [4] appears, read: 10 μM, 18 h pretreatment, 4 h co-incubation, 40:1.
Setting [5] is: 18 h, 7 or 8 concentrations 1 nM to 20 μM, mean ± SEM.
Where [6] appears, read: 10 μM, CD25 expression and CFSE dilution.

T1 sequence (Q9HC29 whole entry): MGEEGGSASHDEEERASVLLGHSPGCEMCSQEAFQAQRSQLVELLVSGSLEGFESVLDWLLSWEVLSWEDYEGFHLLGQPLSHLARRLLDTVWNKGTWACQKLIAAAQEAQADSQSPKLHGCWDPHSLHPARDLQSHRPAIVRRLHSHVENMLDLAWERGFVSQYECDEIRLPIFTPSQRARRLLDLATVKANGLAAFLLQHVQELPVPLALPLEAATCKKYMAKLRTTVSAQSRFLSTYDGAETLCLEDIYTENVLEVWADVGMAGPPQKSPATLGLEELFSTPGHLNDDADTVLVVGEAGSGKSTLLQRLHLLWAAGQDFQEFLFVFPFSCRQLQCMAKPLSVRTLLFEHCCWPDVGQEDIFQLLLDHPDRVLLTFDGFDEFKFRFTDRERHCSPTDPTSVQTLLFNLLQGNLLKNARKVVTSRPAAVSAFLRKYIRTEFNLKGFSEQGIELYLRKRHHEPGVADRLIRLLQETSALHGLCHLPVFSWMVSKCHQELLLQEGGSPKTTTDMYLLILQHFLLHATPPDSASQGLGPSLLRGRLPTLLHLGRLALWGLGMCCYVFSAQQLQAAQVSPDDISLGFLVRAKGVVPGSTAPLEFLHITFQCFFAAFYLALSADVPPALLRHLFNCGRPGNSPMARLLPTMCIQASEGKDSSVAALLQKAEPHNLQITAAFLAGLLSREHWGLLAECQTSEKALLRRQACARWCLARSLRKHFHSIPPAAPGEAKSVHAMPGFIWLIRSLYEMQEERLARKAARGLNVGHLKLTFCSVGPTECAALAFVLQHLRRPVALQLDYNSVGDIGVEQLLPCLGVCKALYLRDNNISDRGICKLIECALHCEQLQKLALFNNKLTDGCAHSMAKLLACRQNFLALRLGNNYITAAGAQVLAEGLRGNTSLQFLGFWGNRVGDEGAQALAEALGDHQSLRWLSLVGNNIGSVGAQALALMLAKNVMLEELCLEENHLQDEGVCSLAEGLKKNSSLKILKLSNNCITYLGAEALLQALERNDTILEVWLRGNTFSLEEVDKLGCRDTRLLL

Broadly, the EC50 is the midpoint of the concentration-response curve. Take `CCCCCCCCCCCCCCCCCC(=O)Oc1ccc(/C=C/C(=O)NCC(=O)N[C@H](C(=O)N[C@H](CCC(=O)OCC)C(=O)OCC)C(C)C)cc1OC` [Compound 75, Diethyl ((E)-3-(3-Methoxy-4-(stearoyloxy)phenyl)acryloyl)glycyl-L-valyl-D-glutamate]: the “Boost to the cytotoxicity of PBMCs against K562 cells” value in data set [1] (100 nM) is “no effects were seen against either cell line”; in data set [1] (1 μM), “still significant”; in data set [1] (setting [4]) it was “significant boost”. In addition, the figures for the concentration for a half-maximal effect (EC50) at NOD2 and at NOD2 (setting [5]) were 2830 nM and 2830 ± 206 nM, respectively. On NOD2 (18 h, mean ± SEM), the “NOD2 activity at 2 μM (fold increase)” value was determined as 2.37 ± 0.01 fold increase. For the same compound, at NOD2 (ratio of EC50 versus compound 74), the “Diminished activity by a factor, relative to 74” value is 90. In data set [2] (setting [6]), the “BMDC-mediated CD4+ T-cell activation and proliferation” value is reported as “significantly enhanced”. The “Boost to the cytotoxicity of PBMCs against MEC1 cells” value in data set [3] (100 nM) is “no effects were seen against either cell line”; in data set [3] (setting [4]), “significant boost”.

For the compound `COc1cc(/C=C/C(=O)NCC(=O)N[C@H](C(=O)N[C@H](CCC(=O)OC2CCCC2)C(=O)OC2CCCC2)C(C)C)ccc1O` [Compound 68, Dicyclopentyl ((E)-3-(4-Hydroxy-3-methoxyphenyl)acryloyl)glycyl-L-valyl-D-glutamate], the “BMDC-mediated CD4+ T-cell activation and proliferation” value in data set [2] (1 μM) is recorded as “also showed this effect”; in data set [2] (setting [6]), “significantly enhanced”.

For `CCCCCCCCCCCCCCCCCC(=O)Oc1ccc(/C=C/C(=O)NCC(=O)N[C@H](C(=O)N[C@H](CCC(=O)OCC)C(=O)OCC)[C@@H](C)O)cc1OC` [Compound 81, Diethyl ((E)-3-(3-Methoxy-4-(stearoyloxy)phenyl)acryloyl)glycyl-L-threonyl-D-glutamate], the “Boost to the cytotoxicity of PBMCs against K562 cells” value in data set [1] (setting [4]) was “devoid of activity”. Further, the concentration giving a half-maximal response (EC50) was found to be 1450 nM on NOD2 and 1450 ± 150 nM on NOD2 (setting [5]). For the same compound, the “NOD2 activity at 2 μM (fold increase)” value on NOD2 (18 h, mean ± SEM) was found to be 1.96 ± 0.01 fold increase. In addition, the “Improvement in potency over 32” value on NOD2 (ratio of EC50 versus compound 32) amounted to 10 fold. The “Boost to the cytotoxicity of PBMCs against MEC1 cells” value in data set [3] (setting [4]) is “devoid of activity”.
